# Reference: patent US20050037436A1, “Test systems and the use thereof for identifying and characterizing compounds” (priority 2000, published 2005)
# Key:
# HC110-R [1] = assay: Ca2+ imaging of HEK-293 cells expressing HC110-R-Myc/His; assay type: cell-based, Haemonchus contortus; settings: stably expressing cells; 400 ng/ml added 6 min before 75 nM α-LTX
# [2] = tested on: untransfected HEK-293 cells; assay: Ca2+ imaging of untransfected or GFP-transfected HEK-293 cells (control); assay type: cell-based, human
# Procedure: The intracellular free Ca^2+ concentration [Ca^2+]i was measured in COS-7 and HEK293 cells transiently transfected with the HC110-R-EGFP or β2-AR-EGFP construct using the calcium imaging method (see also FIG. 11). In each case 2×10^5 COS-7 and HEK293 cells were applied to a 42 mm cover glass coated with 1% gelatine in 55 mm tissue culture dishes with 5 ml of DMEM medium (with 10% FCS and pen/strep). The transfection took place with the aid of the non-liposomal transfection reagent FuGENE 6 (Roche Molecular Biochemicals, Mannheim). […] Constructs of the HC110-R full-length clone with a GFP tag fused in the correct reading frame, and the complete cDNA of the β2-adrenergic receptor which had likewise been provided with a GFP tag at the 3′ end, were transfected. […]
# Loading of the cells with 1 μM Fura-2/acetoxymethyl ester (Fura-2/AM) (Sigma, Deisenhofen) took place 48 h after the transfection in an Na^+-HBS solution (150 mM NaCl; 5.4 mM KCl; 1.8 mM CaCl2; 0.8 mM MgSO4 7H2O; 20 mM glucose; 20 mM Hepes in H2O, pH 7.3) at 37° C., 5% CO2 and 95% humidity for 30 min. After the incubation, the cells loaded with Fura-2/AM were examined under an inverted microscope (Zeiss, Axiovert, Germany) and, in parallel with this, in a digital imaging fluorescence microscope (PTI) and differentiated into transfected and untransfected cells at a wavelength of 440 and 490 nm respectively. […]
# HC110-R [3] = assay type: binding, Haemonchus contortus
# Source text: Since denaturation of proteins is necessary for carrying out SDS-PAGE, there may be destruction of conformation-dependent epitopes. Antibodies or proteins which specifically recognize such epitopes may therefore no longer bind. […] BAY44-4400 differs from PF1022A by 2 morpholine residues which are covalently bonded to the phenyl rings of the two D-phenyllactyl radicals of PF1022A. […] For this purpose, total protein from untransfected HEK-293 cells and HEK-293 cells which transiently express HC110-R-Myc/His, and from the 54 kDa N terminus and the 21 kDa C terminus of HC110-R which were expressed in E. coli, were fractionated by SDS-PAGE, renatured and blotted in the usual way. […] In addition, a partially renatured SDS polyacrylamide gel with the protein fractions of untransfected HEK-293 cells, HEK-293 cells transiently transfected with HC110-R-Myc/His, and the N terminus of HC110-R expressed in E. coli and total protein from H. contortus was blotted, incubated with PF1022A-biotin and detected using streptavidin HRP.
# nematodes = assay: Anthelmintic / neuropharmacological activity on nematodes
structure (smiles),measurement,setting,value
"CC(C)C[C@H]1C(=O)O[C@H](Cc2ccc(N3CCOCC3)cc2)C(=O)N(C)[C@@H](CC(C)C)C(=O)O[C@H](C)C(=O)N(C)[C@@H](CC(C)C)C(=O)O[C@H](Cc2ccc(N3CCOCC3)cc2)C(=O)N(C)[C@@H](CC(C)C)C(=O)O[C@H](C)C(=O)N1C [BAY44-4400, cyclo(-D-Lac-L-MeLeu-D-p-morpholinyl-PhLac-L-MeLeu-)]",α-LTX-induced increase in [Ca2+]i in presence of substance,HC110-R [1],complete inhibition
same,changes caused by substance,[2],causes no changes in untransfected cells
same,HC110-R-specific binding in a Western blot,"HC110-R [3]; denatured proteins, no renaturation",not identifiable
same,band in HEK-293 cells expressing HC110-R-Myc/His,"HC110-R [3]; renatured with urea, no band in untransfected cells",distinct band 116 kDa in size
same,binding to 54 kDa N terminus of HC110-R,"HC110-R [3]; renatured, fragment expressed in E. coli",bound to the 54 kDa N terminus of HC110-R
same,anthelmintic / nematicidal activity in words,nematodes,very effective nematicide
